Laboratory results: ChEMBL document CHEMBL4627261, “A panoramic review of IL-6: Structure, pathophysiological roles and inhibitors” (Bioorg Med Chem, 2020)

How the values were obtained:
WEHI265.1 [1] = assay: Antiinflammatory activity in LPS-induced mouse WEHI265.1 cells assessed as reduction in IL-6 level by ELISA; format: functional, cell-based
WEHI265.1 [2] = assay: Antiinflammatory activity in LPS-induced mouse WEHI265.1 cells assessed as reduction in IL-6 level at 10 uM by ELISA relative to control; format: functional
Mus musculus = assay: Antiinflammatory activity in LPS-induced mouse model assessed as reduction in IL-6 level in serum at 25 mg/kg, po relative to control; format: functional
Homo sapiens [3] = species: Homo sapiens; assay: Inhibition of MAPK (unknown origin) assessed as reduction in […] phosphorylation by cell based assay at 10 ug/ml relative to control
[4] = target: RAC-alpha serine/threonine-protein kinase (Homo sapiens) (UniProt P31749); assay: Inhibition of AKT (unknown origin) assessed as reduction in […] phosphorylation at 10 ug/ml by cell based assay relative to control
Chain of RAC-alpha serine/threonine-protein kinase (Homo sapiens) (P31749 whole entry): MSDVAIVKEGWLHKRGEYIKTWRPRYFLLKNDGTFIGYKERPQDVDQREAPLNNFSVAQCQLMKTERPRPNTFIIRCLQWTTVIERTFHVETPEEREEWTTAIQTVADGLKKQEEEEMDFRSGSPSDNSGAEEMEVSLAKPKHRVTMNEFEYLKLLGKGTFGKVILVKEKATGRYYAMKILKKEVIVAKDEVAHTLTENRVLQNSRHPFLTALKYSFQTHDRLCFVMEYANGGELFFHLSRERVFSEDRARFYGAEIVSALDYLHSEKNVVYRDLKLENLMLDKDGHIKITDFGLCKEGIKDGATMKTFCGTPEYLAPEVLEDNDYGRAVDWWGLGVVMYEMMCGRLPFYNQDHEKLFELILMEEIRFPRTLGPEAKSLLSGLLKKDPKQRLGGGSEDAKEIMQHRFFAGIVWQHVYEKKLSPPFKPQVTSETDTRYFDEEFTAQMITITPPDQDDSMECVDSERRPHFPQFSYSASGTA

RAW264.7 = assay: Effect on IL-6 mRNA expression in mouse RAW264.7 cells at 10 ug/ml relative to control; format: functional
Homo sapiens [5] = species: Homo sapiens; assay: Inhibition of PI3K (unknown origin) assessed as reduction in PI3K phosphorylation by cell based assay at 10 ug/ml relative to control

IC50 (WEHI265.1 [1]) [nM]	Structure (SMILES)	inhibition at 10 µM (WEHI265.1 [2]) [%]	other results
200	O=c1c2c(n3c(c1-c1ccccc1)NCC3)CCC2	74	–
200	O=c1c2c(n3c(c1-c1ccccc1Cl)NCC3)CCC2	90	–
200	COc1ccccc1-c1c2n(c3c(c1=O)CCC3)CCN2	82	–
200	O=c1c2c(n3c(c1-c1ccccc1)SCC3)CCC2	52	–
–	Oc1ccc(-c2cccc(-c3ccc(O)cc3)c2)cc1	85	inhibition in vivo at 25 mg/kg (Mus musculus): 88%
200	Nc1ccccc1-c1c2n(c3c(c1=O)CCC3)CCN2	82	–
200	CC(=O)Nc1ccccc1-c1c2n(c3c(c1=O)CCC3)CCN2	74	–
200	O=c1c2c(n3c(c1-c1ccccc1)OCC3)CCC2	20	–
–	Oc1ccc(-c2cncc(-c3ccc(O)cc3)n2)cc1	55	–
200	CN1CCn2c3c(c(=O)c(-c4ccccc4)c21)CCC3	43	–
200	O=c1c2c(n3c(c1-c1ccccc1[N+](=O)[O-])NCC3)CCC2	73	–
–	Oc1ccc(-c2cncc(-c3ccc(O)cc3)c2)cc1	73	inhibition in vivo at 25 mg/kg (Mus musculus): 71%
–	COC(=O)CCC(=O)Nc1ccccc1C(=O)OC	–	inhibition (Homo sapiens [3]): 54%; inhibition [4]: 70%; Activity (RAW264.7): 33%; inhibition (Homo sapiens [5]): 51%
